Experimental findings from US8889840B2, “Vascular leakage inhibitor” (Industry-Academic Cooperation Foundation, Yonsei University, priority 2009, dated 2014) are described below.

Experiment [1] deals with HRECs. The experiment can be described thus: Stability of tight junctions (TJs) at cell-cell contacts in VEGF-treated HRECs, anti-occludin immunostaining. In kind it is cell-based, human. Conditions: 10 μg/mL 1 hour, then 20 ng/mL VEGF 1 hour. As for the experimental part: In FIG. 8a, confluent HRECs were pretreated with Sac0601 (panel A in FIG. 8a) or Sac0504 (panel B in FIG. 8a) for 60 minutes before treating with 20 ng/ml. VEGF (1 hr). The cells were then stained with occludin antibody.
Confluent HRECs were treated with 10 μg/mL Sac0601 (FIG. 8a, panel A) or Sac0504 (FIG. 8a, panel B) for 1 hour and then with 20 ng/mL. VEGF for 1 hour. Subsequently, the cells were fixed at room temperature for 20 minutes with 4% paraformaldehyde and permeabilized with 0:1% Triton X-100/PBS. Then, the cells were incubated in PBS blocking solution containing 5% normal goat serum and 0.05% Tween-20. The cells were then reacted with anti-occludin antibody (Zymed Laboratories Inc.). The result was visualized with fluorescein-conjugated anti-mouse antibody (Vector Lab.). Also, western blotting was conducted for the cell lysate. The cell lysate was fractionated with SDS-PAGE and then transferred to polyvinyl difluoride membrane. The blocked membrane was reacted with anti-occludin antibody (Zymed Laboratories Inc.) and the immune response band was visualized with the chemiluminescence reagent obtained from Amersham Biosciences, Inc.

For experiment [2], the system named is HRECs. Description: DNA fragmentation in serum-depleted HRECs. In kind it is cell-based, human. Conditions: serum-free medium, 0.1-10 μg/mL, 48 hours. The protocol: HRECs (3×10^4 cells/well) were seeded on a 24-well plate in M199 medium containing 20% fetal bovine serum. The next day, the cells were transferred to a medium containing 0.1-10 μg/mL Sac0601 (FIG. 6a) or 0.1-10 μg/mL Sac0504 (FIG. 6b). DNA fragmentation was analyzed by TUNEL assay 48 hours later.
In addition, chromosomal fragmentation and nicking characteristic of apoptosis were monitored, HRECs (3×10^4 cells/well) were seeded on a 24-well plate in M199 medium (1 mL) containing 20% fetal bovine serum, Next day, the cells were transferred to serum-free M199 medium containing 0.1-10 μg/mL Sac0601 (FIG. 6a) or 0.1-10 μg/mL Sac0504 (FIG. 6b). 48 hours later, the cells were washed twice with PBS, fixed with 2% paraformaldehyde, and washed twice with PBS again, After adding 4′,6-diamidino-2-phenylindole-2HCl (DAPI; Calbiochem, USA) solution and reacting for 30 minutes in the dark, the cells were washed twice with PBS and degree of DNA fragmentation was observed under an optical microscope after covering with a cover glass.

The subject of experiment [3] is HRECs. Description: Restoration of TJ instability and cytoskeleton change induced by VEGF in HRECs. The format is cell-based, human. Conditions: 20 ng/mL VEGF 1 hour, then 10 μg/mL 1 hour. The protocol:
In FIGS. 9a-9b, confluent HRECs were stimulated with 20 ng/mL VEGF (1 hr) before treating with Sac0504 and Sac0601. The cells were then stained with anti-occludin antibody (FIG. 9a) and rhodamine phalloidin (FIG. 9b).
Confluent HRECs were treated with 20 ng/mL. VEGF for 1 hour and then with 10 μg/mL Sac0601 or Sac0504 for 1 hour. Subsequently, the cells were stained with anti-occludin antibody (FIG. 9a) or […] (FIG. 9b) as described above.

In a further experiment the test system is HUVECs. Description: VEGF-induced actin stress fibers in HUVECs, rhodamine phalloidin staining. The format is cell-based, human. Conditions: 10 μg/mL pretreatment 1 hour, 20 ng/mL VEGF. The protocol:
Confluent HUVECs were pretreated with the compounds (10 μg/mL) for 60 minutes before treating with 20 ng/mL VEGF (1 hr). The cells were then stained with rhodamine phalloidin.
It is known that the change in the actin structure of the cytoskeleton is closely related with the permeability of vascular endothelial cells. Increased permeability of vascular endothelial cells leads to increased formation of actin stress fibers and decrease of cortical actin ring structures. Based on this, the ability of inhibiting vascular endothelial permeability of the synthesized Rk1 derivatives was screened. Confluent HUVECs were pretreated with the synthesized compounds (10 μg/mL) for 1 hour before treating with 20 ng/mL VEGF (Upstate Biotechnology). Subsequently, the cells were fixed with 4% paraformaldehyde for 20 minutes at room temperature and washed 3 times with PBS (pH 7.4). Then, the cells were permeabilized with 0.1% Triton X-100/PBS and reacted with 0.1 mg/mL rhodamine phalloidin (Molecular Probes) for 1 hour. Then, the cells were observed under a fluorescence microscope (Olympus).

Experiment [4] concerns human umbilical vein endothelial cells (HUVECs). Description: Serum depletion-induced apoptosis of HUVECs, MTT assay and cell morphology. Conditions: serum-free medium, 5 or 10 μg/mL, 24 and 48 hours. In kind it is cell-based. The protocol: FIGS. 1a-1b and FIGS. 2a-2d show the result of screening Rk1 analogs that protect human umbilical vein endothelial cells (HUVECs) from serum depletion-induced apoptosis. HUVECs (3×10^5 cells/well) were seeded on a 24-well plate in M199 medium containing 20% fetal bovine serum. The next day, the cells were transferred to a medium containing 5 μg/mL (FIG. 1a) or 10 μg/mL (FIG. 1b) of the synthesized compound. Cell viability was determined by MIT assay 24 hours and 48 hours later. FIGS. 2a-2d show the result of observing cell morphologies. […]
Based on the previous researches performed by the inventors, the synthesized derivatives of Rk1 having steroid backbone and having the ability of inhibiting apoptosis of vascular endothelial cells and inhibiting permeability were screened. First, the ability of inhibiting apoptosis of vascular endothelial cells was measured. […] The next day, the cells were transferred to serum-free 11199 medium containing 5 μg/mL (FIG. 1a) or 10 μg/mL (FIG. 1b) of the compound synthesized in Synthesis Example 1-4, Cell viability was determined by MTT assay (Mosmann T, Journal of ImmunalogiCal Methods 65(1-2): 55-63 (1983); Cory A H, et al., Cancer Communications 3(7): 207-12 (1991)) 24 hours and 48 hours later.
Background: Tetrazolium assays rely on reduction of a dye to a coloured formazan, in cell work by metabolically active cells.

Turning to `CC(C)CCC[C@@H](C)[C@H]1CC[C@H]2[C@@H]3CC=C4C[C@@H](OC5CCCCO5)CC[C@]4(C)[C@H]3CC[C@]12C` (some centres unmarked) [Sac0504], in the experiment on HRECs [1], the “redistribution of TJs into the cytoplasm or destabilizing at the cell membrane induced by VEGF” value is recorded as “could be inhibited” and the “stability of TJs between cells” value was “enhanced”. Also, the DNA fragmentation result in the experiment on HRECs [2] is on record as “inhibit DNA fragmentation”. The “change in actin structure and TJ stability at the cell-cell contacts induced by VEGF” value in the experiment on HRECs [3] is listed as “can be restored”. For the same compound, in the experiment on HUVECs, the “cortical actin ring structure” value is “increased the cortical actin ring structure” and the “formation of actin stress fibers induced by VEGF” value was “inhibited the formation of actin stress fibers induced by VEGF”. Further, in experiment [4], the “ability of inhibiting apoptosis (cell viability by MTT assay)” value is on record as “comparable to that of Rk1”.
In the case of `CC(=O)OCC1OC(OC2CCC3(C)C(=CCC4C3CCC3(C)C(C(C)CCCC(C)C)CCC43)C2)C=CC1OC(C)=O` (centres unmarked) [Sac0601], in the experiment on HRECs [1], the “redistribution of TJs into the cytoplasm or destabilizing at the cell membrane induced by VEGF” value was “could be inhibited” and the “stability of TJs between cells” value is “more effective in enhancing the stability of TJs than Sac0504”. Further, the DNA fragmentation result in the experiment with HRECs [2] was “inhibit DNA fragmentation”. Also, the “change in actin structure and TJ stability at the cell-cell contacts induced by VEGF” value in the experiment on HRECs [3] is listed as “can be restored”. In the experiment on HUVECs, the “cortical actin ring structure” value is listed as “increased the cortical actin ring structure” and the “formation of actin stress fibers induced by VEGF” value is “inhibited the formation of actin stress fibers induced by VEGF”. The “ability of inhibiting apoptosis (cell viability by MTT assay)” value in experiment [4] is given as “comparable to that of Rk1”.
